Measurements from patent US11364275B2, “Linear lipopeptide paenipeptins and methods of using the same” (priority 2017, dated 2022).
Converted amounts (≈) assume the structure as drawn. Like-named read-outs stand apart in the source and are kept apart here. Where a SMILES comes first, the peptide text is derived from it. [ ]: non-standard residue; d: D form. The star is where a group is joined. Dab = NCC[C@H](N)C(=O)O; Cbz = O=C(OCc1ccccc1)*

How the values were obtained:
[1] = test system: Acinetobacter baumannii ATCC 19606; assay type: cell-based; conditions: A. baumannii ATCC 19606; TSB
Method: (§3) The minimum inhibitory concentration (MIC) of paenipeptin analogues was determined using the broth microdilution method (Wirker, M. A. Methods for Dilution Antimicrobial Susceptibility Tests for Bacteria that Grow Aerobically: Approved Standard M07-A8; Clinical and Laboratory Standards Institute, Wayne, Pa., 2009). Seven reference strains (Acinetobacter baumannii ATCC 19606, Escherichia coli ATCC 25922, Klebsiella pneumoniae ATCC 13883, Pseudomonas aeruginosa ATCC 27853, Enterococcus faecium ATCC 19434, Staphylococcus aureus ATCC 29213 and methicillin-resistant S. aureus ATCC 43300) were subjected to MIC testing.
(§4) Paenipeptin analogues were two-fold diluted in tryptic soy broth (TSB; Becton Dickinson) and mixed with an equal volume of bacterial suspensions in TSB containing approximately 1.5×10^5 colony-forming units (CFU)/mL in a clear UV-sterilized 96-well microtiter plate (NBS, Corning Inc., Corning, N.Y.). […] The microtiter plate was incubated at 37° C. for 18-20 h.

[2] = test system: Klebsiella pneumoniae ATCC 13883; assay type: cell-based; conditions: K. pneumoniae ATCC 13883; TSB
[3] = test system: Pseudomonas aeruginosa ATCC 27853; assay type: cell-based; conditions: P. aeruginosa ATCC 27853; TSB
Method: as §3, §4

[4] = test system: Enterococcus faecium ATCC 19434; assay type: cell-based; conditions: E. faecium ATCC 19434; TSB
[5] = test system: methicillin-resistant S. aureus ATCC 43300; assay type: cell-based, Staphylococcus aureus; conditions: S. aureus ATCC 43300; TSB
rabbit red blood cells = experiment: Hemolytic activity; assay type: cell-based; conditions: for Hemolysis: relative to Triton X-100
In short: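 Washed defibrinated rabbit RBCs in PBS pH 7.2 incubated 30 min at 37 °C with paenipeptin analogues at 16–128 μg/mL final. Released hemoglobin read at 415 nm in the supernatant; % hemolysis relative to 0.1% Triton X-100.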

Cytotoxicity, MTT assay = assay type: cell-based, human; conditions: human, HEK 293 cells, HEK 293, 24 h, read-out: Viability
Method: (§1) Cytotoxicity of paenipeptin analogues was determined against a human kidney cell line (HEK 293) using MTT assays (Huang E, Yousef AE. 2014. Paenibacterin, a novel broad-spectrum lipopeptide antibiotic, neutralises endotoxins and promotes survival in a murine model of Pseudomonas aeruginosa-induced sepsis. Int J Antimicrob Agents 44: 74-77). Cell viability was measured at 24 h following the addition of lipopeptides at concentrations between 30-105 μg/ml. The viability of human embryonic kidney cells (HEK 293) decreased with the increase of paenipeptin concentration. The viability of HEK 293 cells in the presence of paenipeptin analogue 1 and 15 at 105 μg/ml was 61% and 67%, respectively (Table 10). The relatively low cytotoxicity of paenipeptin analogue 1 and 15 was correlated with their low hemolytic activity against red blood cells.

[6] = test system: human kidney cell line (HEK 293); experiment: Cytotoxicity, MTT assay; assay type: cell-based; conditions: HEK 293; 105 μg/ml; 24 h
Method: as §1

[7] = test system: Acinetobacter baumannii ATCC 19606; experiment: MIC of antibiotics with or without paenipeptin analogues (potentiation); assay type: cell-based; conditions: A. baumannii ATCC 19606
Description: (§2) Gram-negative bacteria, including Acinetobacter and Klebsiella, are intrinsically resistant to the hydrophobic antibiotic rifampicin.

[8] = test system: Klebsiella pneumoniae ATCC 13883; experiment: as above; assay type: cell-based; conditions: K. pneumoniae ATCC 13883
Description: as §2

[9] = test system: A. baumannii FDA-CDC AR 0037; conditions: A. baumannii AR 0037
[10] = test system: A. baumannii FDA-CDC AR 0052; conditions: A. baumannii AR 0052
[11] = test system: A. baumannii FDA-CDC AR 0063; conditions: A. baumannii AR 0063
[12] = test system: A. baumannii FDA-CDC AR 0070; conditions: A. baumannii AR 0070
[13] = test system: A. baumannii FDA-CDC AR 0083; conditions: A. baumannii AR 0083
[14] = test system: K. pneumoniae FDA-CDC AR 0034; conditions: K. pneumoniae AR 0034
[15] = test system: K. pneumoniae FDA-CDC AR 0044; conditions: K. pneumoniae AR 0044
[16] = test system: K. pneumoniae FDA-CDC AR 0068; conditions: K. pneumoniae AR 0068
[17] = test system: K. pneumoniae FDA-CDC AR 0080; conditions: K. pneumoniae AR 0080

CC[C@H](C)[C@H](NC(=O)[C@H](CCN)NC(=O)OCc1ccccc1)C(=O)N[C@@H](CCN)C(=O)N[C@H](Cc1ccccc1)C(=O)N[C@@H](CC(C)C)C(=O)N[C@@H](CCN)C(=O)N[C@@H](C(=O)N[C@@H](CC(C)C)C(=O)N[C@@H](CO)C(N)=O)C(C)C [Analogue 15] (Cbz-[Dab]I[Dab][dF]L[Dab][dV]LS-NH2)
MIC [1]: 16 µg/mL (≈ 14.2 µM)
MIC [2]: >32 µg/mL
MIC [3]: 16 µg/mL (≈ 14.2 µM)
MIC [4]: >32 µg/mL
MIC [5]: >32 µg/mL
Hemolysis (rabbit red blood cells; 16 μg/mL): 0.77 ± 0.15%
Hemolysis (rabbit red blood cells; 32 μg/mL): 0.41 ± 0.67%
Hemolysis (rabbit red blood cells; 64 μg/mL): 0.54 ± 0.70%
hemolytic activity (in words) (rabbit red blood cells; 128 μg/mL): nonhemolytic
Hemolysis (rabbit red blood cells; 128 μg/mL): 0.65 ± 0.29%
viability at 24 h, 30 µg/mL (Cytotoxicity, MTT assay; 30 μg/ml): 91.4 ± 4.09%
viability at 24 h, 45 µg/mL (Cytotoxicity, MTT assay; 45 μg/ml): 84.3 ± 8.12%
viability at 24 h, 60 µg/mL (Cytotoxicity, MTT assay; 60 μg/ml): 82 ± 4.54%
viability at 24 h, 75 µg/mL (Cytotoxicity, MTT assay; 75 μg/ml): 73.3 ± 5.37%
viability at 24 h, 90 µg/mL (Cytotoxicity, MTT assay; 90 μg/ml): 67.1 ± 10%
viability at 24 h, 105 µg/mL (Cytotoxicity, MTT assay; 105 μg/ml): 67.5 ± 9.66%
Viability [6]: 67%
MIC of rifampicin at 2 μg/mL of paenipeptin analogue [7]: 0.0019-0.0039 μg/ml
MIC of rifampicin at 2 μg/mL of paenipeptin analogue [8]: 0.0039 μg/ml
MIC of rifampicin at 4 μg/mL of paenipeptin analogue [8]: 0.00195-0.0039 μg/ml
Sensitization factor (rifampicin) ([8]; MIC without / with 4 μg/mL paenipeptin): 4,096-8,192
MIC of rifampicin at the presence of PMBN or paenipeptin analogue at 4 μg/ml [9]: ≤0.0019 μg/ml
MIC alone ([9]; 10% FBS): 4 µg/mL (≈ 3.56 µM)
MIC alone ([9]; No FBS): 8 µg/mL (≈ 7.11 µM)
increase in antibiotic activity of clarithromycin ([9]; analogue at 4 μg/mL): 8192 fold
MIC alone ([10]; 10% FBS): <0.5 µg/mL
MIC alone ([10]; No FBS): ≤0.5 µg/mL
MIC alone ([11]; 10% FBS): 2 µg/mL (≈ 1.78 µM)
MIC alone ([11]; No FBS): 0.5 to 4 µg/mL
MIC alone ([12]; 10% FBS): 0.5 to 1 µg/mL
MIC alone ([12]; No FBS): ≤0.5 µg/mL
MIC of clarithromycin at the presence of PMBN or paenipeptin analogue at 4 μg/ml [13]: 1-4 μg/ml
MIC of rifampicin at the presence of PMBN or paenipeptin analogue at 4 μg/ml [13]: 0.0313-0.0625 μg/ml
MIC alone ([13]; 10% FBS): 4 to 8 µg/mL
MIC alone ([13]; No FBS): 8 to 16 µg/mL
MIC of clarithromycin at the presence of PMBN or paenipeptin analogue at 4 μg/ml [14]: 0.125-0.5 μg/ml
MIC of rifampicin at the presence of PMBN or paenipeptin analogue at 4 μg/ml [14]: ≤0.0019 μg/ml
MIC alone ([14]; 10% FBS): >32 µg/mL
MIC alone ([14]; No FBS): ≥32 µg/mL
MIC of clarithromycin at the presence of PMBN or paenipeptin analogue at 4 μg/ml [15]: 0.0078-0.0156 μg/ml
MIC of rifampicin at the presence of PMBN or paenipeptin analogue at 4 μg/ml [15]: ≤0.0019 μg/ml
MIC alone ([15]; 10% FBS): 16 to 32 µg/mL
MIC alone ([15]; No FBS): 32 µg/mL (≈ 28.5 µM)
MIC of clarithromycin at the presence of PMBN or paenipeptin analogue at 4 μg/ml [16]: >32 μg/ml
MIC of rifampicin at the presence of PMBN or paenipeptin analogue at 4 μg/ml [16]: 0.0039-0.0078 μg/ml
MIC alone ([16]; 10% FBS): >32 µg/mL
MIC alone ([16]; No FBS): >32 µg/mL
MIC of clarithromycin at the presence of PMBN or paenipeptin analogue at 4 μg/ml [17]: 0.0156 μg/ml
MIC of rifampicin at the presence of PMBN or paenipeptin analogue at 4 μg/ml [17]: 0.0313 μg/ml
MIC alone ([17]; 10% FBS): 32 µg/mL (≈ 28.5 µM)
MIC alone ([17]; No FBS): 32 µg/mL (≈ 28.5 µM)
